# Test results taken from patent US20250325687A1, “CONJUGATE COMPRISING TOLL-LIKE RECEPTOR AGONIST” (MABSOFT THERAPEUTICS (SHANGHAI) CO., LTD., priority 2022, published 2025).
# Where two headings read alike, the source gives them in different places.
# What was measured:
# Type in all cases: cell-based
# [1] = target: T1, hTLR7 (human Toll-like receptor 7) (Homo sapiens, UniProt Q9NYK1); experiment: hTLR7 cell assay (HEK-Blue hTLR7 reporter cells); conditions: 24 hours, OD 650 nm
# T1 construct: host or cells: HEK-Blue hTLR7 (HEK293-derived reporter cells)
# T1 sequence (Q9NYK1 27-1049): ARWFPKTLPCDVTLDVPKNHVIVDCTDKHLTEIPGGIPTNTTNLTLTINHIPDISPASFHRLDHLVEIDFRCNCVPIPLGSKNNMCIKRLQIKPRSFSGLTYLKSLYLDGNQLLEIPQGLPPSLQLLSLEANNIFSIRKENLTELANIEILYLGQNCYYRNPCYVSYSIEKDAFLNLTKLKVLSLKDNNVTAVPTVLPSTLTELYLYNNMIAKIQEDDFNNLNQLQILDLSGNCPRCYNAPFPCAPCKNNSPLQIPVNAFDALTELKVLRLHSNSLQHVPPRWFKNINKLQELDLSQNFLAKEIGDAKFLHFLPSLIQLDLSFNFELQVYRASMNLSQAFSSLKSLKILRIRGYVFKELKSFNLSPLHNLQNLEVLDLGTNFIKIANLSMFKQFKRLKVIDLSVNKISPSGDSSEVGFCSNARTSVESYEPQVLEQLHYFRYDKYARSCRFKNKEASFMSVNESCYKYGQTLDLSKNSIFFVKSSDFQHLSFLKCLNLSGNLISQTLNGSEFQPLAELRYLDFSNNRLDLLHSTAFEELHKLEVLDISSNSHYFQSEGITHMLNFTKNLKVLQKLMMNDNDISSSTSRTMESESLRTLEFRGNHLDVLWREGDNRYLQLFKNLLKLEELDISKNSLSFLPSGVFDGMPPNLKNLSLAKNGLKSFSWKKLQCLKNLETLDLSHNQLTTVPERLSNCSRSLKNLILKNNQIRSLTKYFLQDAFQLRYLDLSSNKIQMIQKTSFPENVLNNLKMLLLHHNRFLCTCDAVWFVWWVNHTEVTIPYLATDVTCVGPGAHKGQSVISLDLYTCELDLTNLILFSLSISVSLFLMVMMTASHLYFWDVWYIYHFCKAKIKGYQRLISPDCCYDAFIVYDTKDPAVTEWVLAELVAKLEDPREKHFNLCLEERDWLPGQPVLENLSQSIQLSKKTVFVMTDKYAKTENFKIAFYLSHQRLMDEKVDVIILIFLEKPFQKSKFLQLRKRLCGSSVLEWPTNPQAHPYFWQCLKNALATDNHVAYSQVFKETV
# Procedure: (§1) The payload compounds of Formula (II′) were assayed to evaluate their agonistic activity on hTLR7 (human Toll-like receptor 7) and hTLR8 (human Toll-like receptor 8). Reporter cells lines (HEK-Blue hTLR7 and HEK-Blue hTLR8) were obtained from InvivoGen. Cells were cryopreserved in liquid nitrogen per supplier's instruction. Upon test, the cells were thawed, passaged and cultured in the growth media of DMEM supplemented with 10% fetal bovine serum, 1×NEAA, 1 mM Pyruvate, 2 mM glutamine, […] in the presence of the following antibiotics, as shown as Table 1. Test compounds (at desired concentrations diluted) were added to the 96-well assay plate, 0.5 μL per well. Reporter cells were harvested from the tissue culture flasks by incubation in PBS at 37° C. for two minutes after the media in the flask is removed and cells rinsed with PBS. Cells were counted and diluted in the HEK-Blue Detection media at 50000 cells/mL and incubated for 24 hours at 37° C., in a 5% CO2 humidified incubator. Then 20 μL of cell supernatant were added to the assay plate containing the 180 µL of QUANTI-Blue, incubated for 1 hour at 37° C. Optical density at 650 nm was analyzed using an Envision (Perkin Elmer) plate reader.
# [2] = system: human PBMC (human peripheral blood mononuclear cells); experiment: PBMC screening assay: induction of TNF-α production; conditions: read-out: EC50 (μM) TNF-α (hPBMC)
# Procedure: The payload compounds of Formula (II′) were assayed to evaluate the induction of TNF-α production in human PBMC (human peripheral blood mononuclear cells).
# Human peripheral blood mononuclear cells (PBMC) were obtained from Allcells. […] PBMC were incubated for 24 hours at 37° C. in a 5% CO2 humidified incubator. The following day PBMC plates were centrifuged at 500×g for 5 minutes and the growth media was removed. 200 μL of compound prepared in growth media at a series of diluted concentrations ranging from 2.54 nM to 50 μM were added to PBMC in duplicate and incubated for 24 hours at 37° C. in a 5% CO2 incubator. Prior to supernatant harvest, cells were spun at 500×g for 5 minutes to remove cell debris. TNF-α activity was assessed in the supernatant by ELISA (Elabscience) per the manufacturer's instructions. Optical density at 450 nm (ELISA) was analyzed using a plate reader.
# [3] = target: T2, hTLR8 (human Toll-like receptor 8) (Homo sapiens, UniProt Q9NR97); experiment: hTLR8 cell assay (HEK-Blue hTLR8 reporter cells); conditions: 24 hours, OD 650 nm
# T2 construct: host or cells: HEK-Blue hTLR8 (HEK293-derived reporter cells)
# T2 sequence (Q9NR97 27-1041): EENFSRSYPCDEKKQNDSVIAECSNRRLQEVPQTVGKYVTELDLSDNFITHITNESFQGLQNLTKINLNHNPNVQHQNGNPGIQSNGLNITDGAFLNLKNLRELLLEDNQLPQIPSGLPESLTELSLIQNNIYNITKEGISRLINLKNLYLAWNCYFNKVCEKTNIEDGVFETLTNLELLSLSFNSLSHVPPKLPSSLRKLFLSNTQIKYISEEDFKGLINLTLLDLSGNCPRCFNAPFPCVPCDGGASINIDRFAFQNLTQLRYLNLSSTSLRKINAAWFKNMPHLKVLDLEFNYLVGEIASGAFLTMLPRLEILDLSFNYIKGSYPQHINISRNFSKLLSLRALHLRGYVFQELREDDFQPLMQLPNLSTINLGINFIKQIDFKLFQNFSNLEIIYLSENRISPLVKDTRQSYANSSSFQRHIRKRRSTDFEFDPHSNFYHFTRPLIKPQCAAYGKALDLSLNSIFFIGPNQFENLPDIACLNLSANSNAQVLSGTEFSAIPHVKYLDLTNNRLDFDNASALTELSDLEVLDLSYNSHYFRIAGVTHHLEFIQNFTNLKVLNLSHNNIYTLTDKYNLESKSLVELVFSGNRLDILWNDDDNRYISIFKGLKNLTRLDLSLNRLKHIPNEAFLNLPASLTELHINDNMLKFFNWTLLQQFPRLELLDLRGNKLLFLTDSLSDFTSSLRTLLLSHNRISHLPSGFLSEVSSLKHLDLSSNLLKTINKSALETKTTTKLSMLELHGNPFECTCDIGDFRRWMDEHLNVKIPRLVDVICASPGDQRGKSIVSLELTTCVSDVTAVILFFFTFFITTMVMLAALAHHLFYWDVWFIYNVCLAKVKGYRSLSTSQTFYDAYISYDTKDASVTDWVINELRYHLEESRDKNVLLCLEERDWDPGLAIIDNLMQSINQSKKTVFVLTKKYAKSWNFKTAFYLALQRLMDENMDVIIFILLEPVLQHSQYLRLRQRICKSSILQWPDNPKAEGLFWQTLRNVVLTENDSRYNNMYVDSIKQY
# Procedure: as §1
# [4] = human PBMC, 24 hours, TNF-α by ELISA, class symbols
Compound,EC50 [1],EC50 [3],"EC50 [2, 4]","EC50 ([2]; Homo sapiens, PBMC, 24 h)"
"CCOCc1nc2c(N)nc3cc(Cc4cccc(CN)c4)ccc3c2n1CC(C)(C)O [Compound 4, 1-(4-amino-7-(3-(aminomethyl)benzyl)-2-(ethoxymethyl)-1H-imidazo[4,5-c]quinolin-1-yl)-2-methylpropan-2-ol]",< 1000 nM,< 5000 nM,–,> 0.64 µM
"CCOCc1nc2c(N)nc3cc(Cc4ccccc4)ccc3c2n1CC(C)(C)O [Compound 171, 1-(4-amino-7-benzyl-2-(ethoxymethyl)-1H-imidazo[4,5-c]quinolin-1-yl)-2-methylpropan-2-ol]",–,–,< 0.64 µM,–
"CCCCc1nc2c(N)nc3cc(Cc4cccc(CCN)c4)ccc3c2n1CC(C)(C)O [Compound 17, 1-(4-amino-7-(3-(2-aminoethyl)benzyl)-2-butyl-1H-imidazo[4,5-c]quinolin-1-yl)-2-methylpropan-2-ol]",< 1000 nM,< 5000 nM,> 0.64 µM,–
"CCCCc1nc2c(N)nc3cc(Cc4cccc(CCCN)c4)ccc3c2n1CC(C)(C)O [Compound 18, 1-(4-amino-7-(3-(3-aminopropyl)benzyl)-2-butyl-1H-imidazo[4,5-c]quinolin-1-yl)-2-methylpropan-2-ol]",< 1000 nM,5000 to 20000 nM,–,> 0.64 µM
"CCCCc1nc2c(N)nc3cc(Cc4cccc(CN)c4)ccc3c2n1CC(C)(C)O [Compound 16, 1-(4-amino-7-(3-(aminomethyl)benzyl)-2-butyl-1H-imidazo[4,5-c]quinolin-1-yl)-2-methylpropan-2-ol]",< 1000 nM,< 5000 nM,< 0.64 µM,–
"CCOCc1nc2c(N)nc3cc(Cc4ccc(CCCN)cc4)ccc3c2n1CC(C)(C)O [Compound 3, 1-(4-amino-7-(4-(3-aminopropyl)benzyl)-2-(ethoxymethyl)-1H-imidazo[4,5-c]quinolin-1-yl)-2-methylpropan-2-ol]",1000 to 10000 nM,5000 to 20000 nM,–,> 0.64 µM
"CCCCc1nc2c(N)nc3cc(Cc4ccc5c(c4)CC(N)CC5)ccc3c2n1CC(C)(C)O (centres unmarked) [Compound 58, 1-(4-amino-7-((7-amino-5,6,7,8-tetrahydronaphthalen-2-yl)methyl)-2-butyl-1H-imidazo[4,5-c]quinolin-1-yl)-2-methylpropan-2-ol]",< 1000 nM,< 5000 nM,< 0.64 µM,–
"CCC[C@@H](C)c1nc2c(N)nc3cc(Cc4ccc(CCN)cc4)ccc3c2n1CC(C)(C)O [Compound 9, (R)-1-(4-amino-7-(4-(2-aminoethyl)benzyl)-2-(pentan-2-yl)-1H-imidazo[4,5-c]quinolin-1-yl)-2-methylpropan-2-ol]",> 10000 nM,> 20000 nM,–,< 0.64 µM
"CCCCc1nc2c(N)nc3cc(Cc4ccc5c(c4)C(N)CCC5)ccc3c2n1CC(C)(C)O (centres unmarked) [Compound 57, 1-(4-amino-7-((8-amino-5,6,7,8-tetrahydronaphthalen-2-yl)methyl)-2-butyl-1H-imidazo[4,5-c]quinolin-1-yl)-2-methylpropan-2-ol]",< 1000 nM,< 5000 nM,–,< 0.64 µM
CCOCc1nc2c(N)nc3cc(Cc4ccc(CNC(=O)CO)s4)ccc3c2n1CC(C)(C)O [Compound 169],–,–,> 0.64 µM,–

# Now from value to compound, other results behind:
EC50 [1],EC50 [3],Compound,"EC50 [2, 4]","EC50 ([2]; Homo sapiens, PBMC, 24 h)"
< 1000 nM,< 5000 nM,"CCCCc1nc2c(N)nc3cc(Cc4ccc5c(c4)CNCC5)ccc3c2n1CC(C)(C)O [Compound 60, 1-(4-amino-2-butyl-7-((1,2,3,4-tetrahydroisoquinolin-7-yl)methyl)-1H-imidazo[4,5-c]quinolin-1-yl)-2-methylpropan-2-ol]",< 0.64 µM,–
1000 to 10000 nM,< 5000 nM,"CCCCc1nc2c(N)nc3cc(Cc4ccccc4CN)ccc3c2n1CC(C)(C)O [Compound 71, 1-(4-amino-7-(2-(aminomethyl)benzyl)-2-butyl-1H-imidazo[4,5-c]quinolin-1-yl)-2-methylpropan-2-ol]",> 0.64 µM,–
< 1000 nM,< 5000 nM,"CCCCc1nc2c(N)nc3cc(Cc4ccc5c(c4)CCNC5)ccc3c2n1CC(C)(C)O [Compound 59, 1-(4-amino-2-butyl-7-((1,2,3,4-tetrahydroisoquinolin-6-yl)methyl)-1H-imidazo[4,5-c]quinolin-1-yl)-2-methylpropan-2-ol]",< 0.64 µM,–
< 1000 nM,< 5000 nM,"CCOCc1nc2c(N)nc3cc(Cc4ccc(CN)s4)ccc3c2n1CC(C)(C)O [Compound 147, 1-(4-amino-7-((5-(aminomethyl)thiophen-2-yl)methyl)-2-(ethoxymethyl)-1H-imidazo[4,5-c]quinolin-1-yl)-2-methylpropan-2-ol]",< 0.64 µM,–
< 1000 nM,< 5000 nM,"CCCCc1nc2c(N)nc3cc(Cc4ccc(C(C)(C)CN)cc4)ccc3c2n1CC(C)(C)O [Compound 70, 1-(4-amino-7-(4-(1-amino-2-methylpropan-2-yl)benzyl)-2-butyl-1H-imidazo[4,5-c]quinolin-1-yl)-2-methylpropan-2-ol]",< 0.64 µM,–
< 1000 nM,< 5000 nM,"CCOCc1nc2c(N)nc3cc(Cc4ccc5c(c4)CCNC5)ccc3c2n1CC(C)(C)O [Compound 152, 1-(4-amino-2-(ethoxymethyl)-7-((1,2,3,4-tetrahydroisoquinolin-6-yl)methyl)-1H-imidazo[4,5-c]quinolin-1-yl)-2-methylpropan-2-ol]",< 0.64 µM,–
